Data reported in US5194645A, “Trans-Pt (IV) compounds” (Johnson Matthey Public Limited Company, priority 1991, dated 1993).

Assays:
[1] = system: Adj/PC6/tetraplatin res; test: In vivo Adj/PC6 tetraplatin-resistant tumour test in mice; parameters: key to ED90: --: indicates 90% inhibition not achieved for doses up to LD50
Method: (§1) The animals were sacrificed when moribund. The compounds were administered parenterally (ip).

[2] = system: CHI ®/CHI; test: Resistance factor CHI ®/CHI; type: cell-based, human; conditions: ratio of IC50 resistant to nonresistant line, ovarian
Method: (§2) Additional in vitro biological testing was conducted using cell lines derived from human carcinomas and maintained at the Institute of Cancer Research, Sutton, England (see C A Hills & colleagues, Br J Cancer 59, 527-34 (1989)). Monolayer cells were trypsinized and seeded in 96-well microtiter plates at a density of 1×10^4 cells/well in 200 μl of growth medium. Cells were incubated overnight and test compounds were added to triplicate wells at various concentrations for a total of 48 to 96 hours. For toxicity analysis after drug exposure, the cells were fixed with trichloroacetic acid and stained for cellular protein content by incubation for 30 minutes with 0.4% (wt/vol) sulforodamine B (SRB) dissolved in 1% acetic acid. The unbound dye was removed by 1% acetic acid washes, and the bound dye was extracted with 10 mM Tris buffer. The amount of dye in solution was quantified by absorbance at 564 nm.
(§3) In the Tables A and B below, all the cells are ovarian cancer cells with the exception of GCT27^R /GCT27 which are testicular. Table A gives IC50 values in μM; Table B gives Resistance Factors as a ratio of IC50 for a cell line bred to be resistant to cisplatin against IC50 for the nonresistant cell line.

[3] = system: 41M ®; test: In vitro cytotoxicity (SRB), 41M ®; type: cell-based, human; conditions: 41M ® (cisplatin resistant), ovarian cancer, 48 to 96 hours
Method: as §2, §3

[4] = system: 41M; test: In vitro cytotoxicity (SRB), 41M; type: cell-based, human; conditions: ovarian cancer, 48 to 96 hours
Method: as §2, §3

[5] = system: PXN/94; test: In vitro cytotoxicity (SRB), PXN/94; type: cell-based, human; conditions: PXN/94, ovarian cancer, 48 to 96 hours
Method: as §2, §3

[6] = system: Adj/PC6/cisplatin res; test: In vivo Adj/PC6 cisplatin-resistant tumour test in mice
Method: as §1

[7] = system: CHI; test: In vitro cytotoxicity (SRB), CHI; type: cell-based, human; conditions: ovarian cancer, 48 to 96 hours
Method: as §2, §3

[8] = system: 41M ®/41M; test: Resistance factor 41M ®/41M; type: cell-based, human; conditions: ratio of IC50 resistant to nonresistant line, ovarian
Method: as §2, §3

[9] = system: A2780 ®/A2780; test: Resistance factor A2780 ®/A2780; type: cell-based, human; conditions: ratio of IC50 resistant to nonresistant line, ovarian
Method: as §2, §3

[10] = system: SKOV-3; test: In vitro cytotoxicity (SRB), SKOV-3; type: cell-based, human; conditions: SKOV-3, ovarian cancer, 48 to 96 hours
Method: as §2, §3

[11] = system: Resistant L1210; test: In vivo cisplatin-resistant L1210 leukemia, increase in life span; conditions: 9 mg/kg, ip, days 1, 5 and 9, DBA/2 mice, L1210 resistant to cisplatin
Method: as §1
(§4) The compound of Example 2 was tested against L1210 leukemia, and also against a strain of L1210 resistant to cisplatin, in mice, and the increase in life span (ILS) determined against control mice not being administered any active compound, according to the equation, [formula] where T=days survival of treated mice and
(§5) C=days survival of control mice

[12] = system: Adj/PC6/iproplatin res; test: In vivo Adj/PC6 iproplatin-resistant tumour test in mice
Method: as §1

[13] = system: Adj/PC6; test: In vivo Adj/PC6 tumour test in mice (LD50, ED90, therapeutic index)
Method: The Adj/PC6 testing was carried out as described by P M Goddard et al presented in Sixth NCI-EORTC Symposium on New Drugs in Cancer Therapy 1989, which is a development of the basic method described by T A Connors et al, Chem Biol Interact 5, 415(1972). The in vivo L1210 tests were conducted according to the NCI protocol, Cancer Chemotherapy Reports, Part 3, vol 2, (Sept 1972) except that the animals used were DBA/2 mice and that dosing was carried out on days 1, 5 and 9. The animals were sacrificed when moribund. The compounds were administered parenterally (ip).
In the Adj/PC6 testing, LD50 and ED90 values in mg/kg body weight were determined in the conventional manner. The therapeutic index (TI) was calculated as the ratio of LD50 to ED90, and the results are shown below.
Additional tests were carried out in vivo using the compound of Example 2, against sensitive Adj/PC6 tumour cell lines, and against tumour cell lines resistant to various platinum anti-tumour agents, and a TI (Therapeutic Index) calculated, as described above.

[14] = system: L1210; test: In vivo L1210 leukemia, increase in life span; conditions: 9 mg/kg, ip, days 1, 5 and 9, DBA/2 mice
Method: as §1, §4, §5

[15] = system: CHI ®; test: In vitro cytotoxicity (SRB), CHI ®; type: cell-based, human; conditions: CHI ® (cisplatin resistant), ovarian cancer, 48 to 96 hours
Method: as §2, §3

[16] = system: HX62; test: In vitro cytotoxicity (SRB), HX62; type: cell-based, human; conditions: HX62, ovarian cancer, 48 to 96 hours
Method: as §2, §3

[17] = system: OVCAR-3; test: In vivo OVCAR-3 ovarian carcinoma xenograft; parameters: species or system mice; conditions: for Growth Delay: delay in doubling of tumour volume vs control
Method: The "growth delay" was also measured which represents the delay in achieving a doubling of the tumour volume for the treated group compared to the control group.

[18] = system: OVCAR-3; test: In vivo OVCAR-3 ovarian carcinoma xenograft; parameters: species or system mice; conditions: tumour volume vs control
[19] = system: GCT27 ®/GCT27; test: Resistance factor GCT27 ®/GCT27; type: cell-based, human; conditions: ratio of IC50 resistant to nonresistant line, testicular
Method: as §2, §3

[20] = Adj/PC6, comparison with cis-isomer

[NH2][Pt]([OH])([OH])([Cl])([Cl])[NH]C1CCCCC1 [EX 2, trans-[PtCl2 (OH)2 (NH3)(c-C6H11 NH2)]] was tested, and the ED90 [1] was “--”, the LD50 [1] was 8.8 mg/kg and the “Resistance Factor CHI ®/CHI” value [2] was 1.6. For the same compound, the IC50 [3] was 1800 nM, the IC50 [4] was 1500 nM and the IC50 [5] was 3700 nM. The ED90 [6] was 5.6 mg/kg, the LD50 [6] was 10.5 mg/kg and the “TI (Therapeutic Index)” value [6] was 1.88. The IC50 [7] was 1400 nM, the “Resistance Factor 41M ®/41M” value [8] was 1.2 and the “Resistance Factor A2780 ®/A2780” value [9] was 7.1. For the same compound, the IC50 [10] was 8800 nM, the “ILS (increase in life span)” value [11] was 39% and the ED90 [12] was 2.6 mg/kg. For the same compound, the LD50 [12] was 8.8 mg/kg, the “TI (Therapeutic Index)” value [12] was 3.4 and the ED90 [13, 20] was 0.76 mg/kg. The “TI (Therapeutic Index)” value [13, 20] was 11.6, the ED90 ([13]; Adj/PC6 testing, mice, ip) was 0.76 mg/kg body weight and the LD50 ([13]; Adj/PC6 testing, mice, ip) was 8.8 mg/kg body weight. For the same compound, the “TI (therapeutic index, ratio of LD50 to ED90)” value ([13]; Adj/PC6 testing, mice, ip) was 11.6, the “activity compared with the cis isomer” value ([13]; sensitive and platinum-resistant Adj/PC6 tumours) was “possesses activity, and a different spectrum of activity to the cis isomer” and the “ILS (increase in life span)” value [14] was 77%. The IC50 [15] was 2200 nM, the IC50 [16] was 5900 nM and the “Growth Delay” value ([17]; 1 mg/kg) was 0.9 days. The “Growth Delay” value ([17]; 2 mg/kg) was 12.0 days, the “Growth Delay” value ([17]; 4 mg/kg) was 16.8 days and the “dose-related effect (OVCAR-3 xenograft)” value ([17]; increasing doses) was “clear dose-related effect”. The “T/C (day 28)” value ([18]; 1 mg/kg) was 0.80, the “T/C (day 28)” value ([18]; 2 mg/kg) was 0.64 and the “T/C (day 28)” value ([18]; 4 mg/kg) was 0.48. The “Resistance Factor GCT27 ®/GCT27” value [19] was 1.8.
